Laboratory results reported in patent US6040341A, “Compounds and their compositions having anti-inflammatory and anti-thrombotic activities” (Nicox S.A., priority 1995, dated 2000).
Like-named read-outs stand apart in the source and are kept apart here.

Columns and labels:
cyclooxygenases = target: T1, cyclooxygenases (Homo sapiens, UniProt P23219); assay: COX inhibition in human piastrines (Tromboxan B2 level); assay type: cell-based; settings: for COX inhibition (%): 5.10^-5 M; for COX inhibition (%) / inhibition at 100 µM / inhibition at 10 µM: % referred to controls (adding of the aggregating substance only); for inhibition at 100 µM: 10^-4 M; for inhibition at 10 µM: 10^-5 M
T1 construct: endogenous in cells; host or cells: human platelets
T1 sequence (P23219 24-599): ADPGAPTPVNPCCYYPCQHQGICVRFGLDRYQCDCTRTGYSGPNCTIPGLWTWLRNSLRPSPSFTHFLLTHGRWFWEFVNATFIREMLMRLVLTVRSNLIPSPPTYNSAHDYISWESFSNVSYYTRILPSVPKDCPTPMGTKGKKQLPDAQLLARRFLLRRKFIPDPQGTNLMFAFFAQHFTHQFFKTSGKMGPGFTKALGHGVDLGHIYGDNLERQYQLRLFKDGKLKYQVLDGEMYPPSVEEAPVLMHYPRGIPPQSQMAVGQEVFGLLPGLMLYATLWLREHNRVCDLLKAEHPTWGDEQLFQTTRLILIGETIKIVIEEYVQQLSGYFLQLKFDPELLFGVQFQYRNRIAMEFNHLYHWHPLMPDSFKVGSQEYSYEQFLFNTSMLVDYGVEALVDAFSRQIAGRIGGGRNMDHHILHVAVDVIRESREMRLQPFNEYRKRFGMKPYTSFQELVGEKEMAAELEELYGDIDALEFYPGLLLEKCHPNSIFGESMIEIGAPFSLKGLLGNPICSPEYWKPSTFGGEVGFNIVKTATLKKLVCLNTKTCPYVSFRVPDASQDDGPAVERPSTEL
Protocol: (§1) For the in vitro tests (piastrinic tests) the nitroderivatives, 1 mmol, were dissolved in dimethylsulfoxide and then diluted according to the concentrations listed in the Table.
(§2) Aspirin ASA 30 mmols was dissolved in a mixture of etanol:H2 O in the range 1:10 by volume and then diluted according to the concentrations listed in the Table.
The inhibition activity of the cyclooxygenases was determined in human piastrines according to the method described by Patrono et al (Thrombosis Res. 17, 317, 1980). The enzimatic activity was expressed as level of Tromboxan B2 (TX B2) and measured in ng/ml.

[1] = tested on: intestinal gastric mucose; assay: Gastric tolerability, oral, in the rat; assay type: in vivo; settings: for Gastric damage: oral; for Gastric tolerance: in vivo
Protocol: In the in vivo studies (for example toxicity) the products obtained above were administered in form of suspension in carboxymethylcellulose 1-2% by weight.
The gastric tolerability was evaluated through oral subministration in the rat measuring the seriousness of the gastropathie induced according to the criterium indicated by Wallace et al. (Am. J. Physiol. 259, G642, 1990).

[2] = tested on: human piastrines stimulated by arachidonic acid; assay: Anti-aggregating piastrinic activity, aggregation induced by arachidonic acid; assay type: cell-based; settings: Platelet; for activity at 10 µM / activity at 100 µM: read-out: Piastrinic aggregation (%) induced by arachidonic acid
Protocol: as §1, §2

[3] = tested on: human piastrines stimulated by trombin; assay: Anti-aggregating piastrinic activity, aggregation induced by trombin; assay type: cell-based; settings: for activity at 10 µM / activity at 100 µM / activity at 1000 µM: read-out: Piastrinic aggregation (%) induced by trombin
Protocol: as §1, §2

piastrinic adhesion = assay: Piastrinic adhesion; assay type: cell-based; settings: from 10^-5 to 10^-4 M
Protocol: as §1, §2
The inhibition activity of the piastrinic adhesion was evaluated according to the method described by Bellavite et al. (Anal. Biochem. 216, 444, 1994).

[4] = tested on: calcium concentration inside the piastrine; assay: Intracellular piastrinic calcium; assay type: cell-based; settings: from 10^-5 to 10^-4 M
Protocol: as §1, §2
The effect of the compounds of the invention or comparison compounds on the calcium concentration inside the piastrine was measured according to the method of Pollock et al. (Biochem. J. 235, 869, 1986).

[5] = 10^-4 M, % referred to controls (adding of the aggregating substance only)
[6] = 10^-5 M, % referred to controls (adding of the aggregating substance only)
[7] = Homo sapiens, Platelet, 10^-4 M, % referred to controls (adding of the aggregating substance only)

Structure (SMILES) | COX inhibition (%) (cyclooxygenases) | inhibition at 100 µM (cyclooxygenases) | inhibition at 10 µM (cyclooxygenases) | Gastric tolerance [1] | Gastric damage ([1]; 250-500 mg/Kg) | activity at 100 µM [2, 5] | activity at 10 µM [2, 6] | activity at 100 µM [3, 7] | also measured
CC(=O)Oc1ccccc1C(=O)O [ASA, acetylsalicilic acid] | 3% | 1% |  |  |  |  |  |  | Gastric damage ([1]; 50-100 mg/Kg): severe damages; activity at 10 µM [2]: 40%; activity at 100 µM [2]: 0%; activity at 10 µM ([3]; Homo sapiens, Platelet): 100%; activity at 100 µM ([3]; Homo sapiens, Platelet): 100%; activity at 1000 µM ([3]; Homo sapiens, Platelet): 80%
CC(=O)Oc1ccccc1C(=O)Oc1cccc(CO[N+](=O)[O-])c1 [ANMPE, 2-acetoxy-benzoate of (3-nitroxymetyhyl)fenyl] | 2% |  | 5% | very well tolerated in the gastric mucose | did not produce relevant damages | 0% | 60% | 0% | Inhibition of piastrinic adhesion (piastrinic adhesion): efficient in inhibiting significantly and in a dose-dependent way; COX inhibition, comparison in words (cyclooxygenases; versus ASA and ANBE): activities similar to ASA, but well higher with respect to ANBE; Inhibition of intracellular piastrinic calcium [4]: efficient in inhibiting significantly and in a dose-dependent way; activity at 50 µM ([2]; 5.10^-5 M, % referred to controls (adding of the aggregating substance only)): 10%; activity at 50 µM ([3]; Homo sapiens, Platelet, 5.10^-5 M, % referred to controls (adding of the aggregating substance only)): 40%; activity at 10 µM ([3]; Homo sapiens, Platelet, 10^-5 M, % referred to controls (adding of the aggregating substance only)): 70%; Inhibition of piastrinic aggregation induced by trombin, comparison in words ([3]; versus ASA and ANBE): values surprisingly higher both with respect to ANBE and ASA
CC(=O)Oc1ccccc1C(=O)OCCCCO[N+](=O)[O-] [ANBE, 2-acetoxy-benzoate of (4-nitroxy)butyl] | 70% | 30% | 80% | very well tolerated in the gastric mucose | did not produce relevant damages | 50% | 100% | 60% | activity at 1000 µM ([2]; 10^-3 M, % referred to controls (adding of the aggregating substance only)): 20%; activity at 1000 µM ([3]; Homo sapiens, Platelet, 10^-3 M, % referred to controls (adding of the aggregating substance only)): 50%
